Test results reported in US12606520B2, “Calpain-2 inhibitor compounds and methods of treatment” (WESTERN UNIVERSITY OF HEALTH SCIENCES, priority 2020, dated 2026).
Where two headings read alike, the source gives them in different places.

Legend:
calpain-1 = molecular target: T1, calpain-1 (Mus musculus, UniProt O35350); assay: Calpain-1 activity in WT mouse cerebellar homogenate (20 μM Ca2+), Suc-Leu-Tyr-AMC cleavage; format: biochemical; parameters: from tissue; host or cells: wild-type mouse cerebellar (P2) homogenate; conditions: 20 μM calcium, read-out: IC50, 20 μM Ca^2+ (Calpain-1)
T1 sequence (O35350 1-713): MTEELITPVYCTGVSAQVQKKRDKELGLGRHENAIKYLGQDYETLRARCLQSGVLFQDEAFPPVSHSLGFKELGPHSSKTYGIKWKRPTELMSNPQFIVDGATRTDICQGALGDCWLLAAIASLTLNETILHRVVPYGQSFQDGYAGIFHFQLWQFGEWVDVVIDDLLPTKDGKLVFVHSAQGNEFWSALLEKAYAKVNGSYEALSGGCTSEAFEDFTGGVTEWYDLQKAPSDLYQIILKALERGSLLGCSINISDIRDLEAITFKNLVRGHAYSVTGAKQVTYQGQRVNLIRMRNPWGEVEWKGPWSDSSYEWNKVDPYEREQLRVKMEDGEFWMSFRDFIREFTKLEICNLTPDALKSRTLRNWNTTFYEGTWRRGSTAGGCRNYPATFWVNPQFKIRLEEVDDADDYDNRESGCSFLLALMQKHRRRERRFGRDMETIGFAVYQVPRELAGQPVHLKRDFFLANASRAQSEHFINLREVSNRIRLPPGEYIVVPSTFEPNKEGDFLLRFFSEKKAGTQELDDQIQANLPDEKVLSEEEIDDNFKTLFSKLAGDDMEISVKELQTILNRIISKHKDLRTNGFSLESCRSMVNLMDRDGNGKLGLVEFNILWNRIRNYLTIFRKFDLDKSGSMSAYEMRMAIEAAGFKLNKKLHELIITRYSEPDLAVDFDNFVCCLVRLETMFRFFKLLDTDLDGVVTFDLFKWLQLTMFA
T1 sequence (O88456 1-268 partner): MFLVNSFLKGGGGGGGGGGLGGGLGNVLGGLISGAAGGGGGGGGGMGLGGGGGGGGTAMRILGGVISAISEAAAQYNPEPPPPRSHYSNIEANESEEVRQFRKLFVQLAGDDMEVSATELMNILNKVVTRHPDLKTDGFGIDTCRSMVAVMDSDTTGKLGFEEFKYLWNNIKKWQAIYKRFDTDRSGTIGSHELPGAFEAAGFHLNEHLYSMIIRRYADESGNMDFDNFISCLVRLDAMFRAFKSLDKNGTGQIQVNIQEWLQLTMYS
Method: Cerebellar homogenates from wild-type (WT) or calpain-1 Knock-out (KO) mice were incubated with 20 μM calcium to activate calpain-1 or with 2 mM calcium to activate calpain-2, respectively, and increasing concentrations of NA112 (12). Calpain activity was measured by the cleavage of Succinyl-Leu-Tyr-7-amino-4-methylcoumarin (Suc-Leu-Tyr-AMC), resulting in increased fluorescence. Activity is normalized to the value measured in the presence of vehicle (DMSO).
WT or calpain-1 KO mouse cerebellar P2 homogenate (crude synaptosomal fraction) were used for measuring inhibitory activity of compounds against the mouse endogenous calpain-1/-2. Each reaction contains 100 ul of WT or calpain-1 KO mouse cerebellar P2 homogenate+0, 20 or 2000 uM Ca^2++0-10,000 nM NA184.
Calpain-1 activity=calpain activity under 20 uM Ca^2+ in WT mice

[1] = PK in mice after iv injection of liposomal NA112: brain; format: in vivo; conditions: mouse; for concentration at 1 min / concentration at 5 min / concentration at 0.25 h / concentration at 0.5 hr / concentration at 1 hr / concentration at 2 h / concentration at 4 h / concentration at 8 h / concentration at 16 h: iv, 10 mg/kg, mice iv 10 mg/kg liposomes; for concentration at 1 min: 0.0167 hr; for concentration at 5 min: 0.0833 hr
Method: NA112 was prepared in liposomes at a concentration of 1.5 mg/ml. Mice were injected in the tail vein with 200 μl of NA112 in liposomes (corresponding to a dose of 10 mg/kg) and were sacrificed at the following time-points: 1, 5, 15, 30 min, 1, 2, 4, 8, 16 and 24 h. Blood was collected and plasma rapidly prepared by centrifugation. Brains were also collected. NA112 in plasma and in brain homogenates was assayed with LC/Ms and the sensitivity of the assay was 1 ng/ml. Experiments were performed in duplicate (A1 and A2 in Table 3). Results were averaged for preparing the figure and calculating the half-life of NA112 in plasma and in brain.
Data from table 4 are plotted as a function of time. While the curve is not easily fitted with a 2-compartment model, the slower component appears to have a half-life of about 3 h.

[2] = as above; format: in vivo; conditions: mice iv 10 mg/kg liposomes, 24 hr; BLQ: below the limit of quantification, assay sensitivity 2 ng/ml
[3] = read-out: Brain concentration A1
[4] = read-out: Brain concentration A2
[5] = read-out: Brain concentration Mean

Question: For CCC(NC(=O)[C@H](CC(C)C)NC(=O)NCc1ccccc1)C(=O)C(=O)NCc1cc(OC)cc(OC)c1 (mixture of isomers) [NA112, (2S)-2-(3-benzylureido)-N-(1-((3,5-dimethoxybenzyl)amino)-1,2-dioxopentan-3-yl)-4-methylpentanamide], which IC50 (calpain-1) is on record?
Answer: 1380 nM

Question: And the concentration at 1 min [1, 3]?
Answer: 520 ng/mL

Question: And the concentration at 1 min [1, 4]?
Answer: 305 ng/mL

Question: And the concentration at 1 min [1, 5]?
Answer: 412 ng/mL

Question: What about the concentration at 5 min [1, 3] of the same molecule?
Answer: 168 ng/mL

Question: And the concentration at 5 min [1, 4]?
Answer: 129 ng/mL

Question: And the concentration at 5 min [1, 5]?
Answer: 149 ng/mL

Question: What about the concentration at 0.25 h [1, 3] of the same molecule?
Answer: 106 ng/mL

Question: And the concentration at 0.25 h [1, 4]?
Answer: 62.3 ng/mL

Question: And the concentration at 0.25 h [1, 5]?
Answer: 84.4 ng/mL

Question: What about the concentration at 0.5 hr [1, 3] of the same molecule?
Answer: 60.6 ng/mL

Question: What about the concentration at 0.5 hr [1, 4] of the same molecule?
Answer: 63.4 ng/mL

Question: And the concentration at 0.5 hr [1, 5]?
Answer: 62 ng/mL

Question: And the concentration at 1 hr [1, 3]?
Answer: 45.6 ng/mL

Question: What about the concentration at 1 hr [1, 4] of the same molecule?
Answer: 48.4 ng/mL

Question: And the concentration at 1 hr [1, 5]?
Answer: 47 ng/mL

Question: What about the concentration at 2 h [1, 3] of the same molecule?
Answer: 25.9 ng/mL

Question: And the concentration at 2 h [1, 4]?
Answer: 30.9 ng/mL

Question: And the concentration at 2 h [1, 5]?
Answer: 28.4 ng/mL

Question: What about the concentration at 4 h [1, 3] of the same molecule?
Answer: 14 ng/mL

Question: What about the concentration at 4 h [1, 4] of the same molecule?
Answer: 21.3 ng/mL

Question: And the concentration at 4 h [1, 5]?
Answer: 17.6 ng/mL

Question: And the concentration at 8 h [1, 3]?
Answer: 19.5 ng/mL

Question: And the concentration at 8 h [1, 4]?
Answer: 15.4 ng/mL

Question: What about the concentration at 8 h [1, 5] of the same molecule?
Answer: 17.4 ng/mL

Question: And the concentration at 16 h [1, 3]?
Answer: 6.65 ng/mL

Question: What about the concentration at 16 h [1, 4] of the same molecule?
Answer: 9.41 ng/mL

Question: What about the concentration at 16 h [1, 5] of the same molecule?
Answer: 8.03 ng/mL

Question: What about the half-life ([1]; mice, iv 10 mg/kg in liposomes, read-out: Half-life of slower component in brain (converted)) of the same molecule?
Answer: ~180 min

Question: What about the “Brain concentration A1” value [2] of the same molecule?
Answer: BLQ

Question: What about the “Brain concentration A2” value [2] of the same molecule?
Answer: BLQ

Question: What about the “Brain concentration Mean” value [2] of the same molecule?
Answer: BLQ
